Results reported in patent US20210196670A1, “ORAL FORMULATIONS OF LAVENDER AND CANNABINOIDS” (EMERALD HEALTH THERAPEUTICS CANADA INC., priority 2018, published 2021).

System: activation of NF-κB by TNFα
Assay: NF-κB luciferase reporter assay (TNFα-stimulated NIH-3T3-KBFLuc cells)
Assay type: cell-based
Settings: for Experiment 1 % of activity / Experiment 2 % of activity / Experiment 3 % of activity / Conclusions: Is inhibition of TNF activation of NF-κB observed?: cannabinoid 10 μM alone; for Experiment 1 % of activity / Experiment 2 % of activity / Experiment 3 % of activity: TNFα 30 ng/mL = 100%; for Conclusions: Is inhibition of TNF activation of NF-κB observed?: mean of three experiments
Method: The NF-kB pathway inhibition in response to treatment with the Cannabinoid and NHP either as single agents or in combination will be monitored using the Luciferase Reporter gene assay described in Del Prete et al, J. Nat. Prod.
For the anti-NF-κB activity stably transfected NIH-3T3-KBFLuc cells are treated with different concentration of NHP compounds for 30 minutes and then stimulated with TNF-α (30 ng/mL). After treatment, the cells are washed twice in phosphate-buffered saline and lysed in 25 mM Tris-phosphate pH 7.8, 8 mM MgCl2, 1 mM DTT, 1% Triton X-100, and 7% glycerol during 15 min at room temperature in a horizontal shaker. Luciferase activity in the supernatant is measured using a TriStar2 Berthold/LB942 multimode reader (Berthold Technologies) following the manufacturer's instructions of the luciferase assay kit (Promega, Madison, Wis., US). For NF-κB inhibition the RLU (relative light units) is calculated, and the results are normalized to 100% stimulation induced by induced by TNF-α (100% activation). The results are presented from three independent experiments.

| SMILES | inhibition of NF-κB activity by the cannabinoid itself (10 μM, alone) | Experiment 1 % of activity [%] | Experiment 2 % of activity [%] | Experiment 3 % of activity [%] | Conclusions: Is inhibition of TNF activation of NF-κB observed? |
| --- | --- | --- | --- | --- | --- |
| C=C(C)[C@@H]1CCC(C)=C[C@H]1c1c(O)cc(CCCCC)cc1O [CBD, cannabidiol] | non-inhibitory | 93.6 | 97.0 | 108.2 | Negative (Only treatments that the mean of three consecutive independent experiments shows a positive result (activity ≤50%) are considered inhibitory of NF-κB activity) |
| CCCCCc1cc(O)c2c(c1)OC(C)(C)[C@@H]1CCC(C)=C[C@@H]21 [THC, tetrahydrocannabinol] |  | 102.5 | 97.8 | 98.5 | Negative (Only treatments that the mean of three consecutive independent experiments shows a positive result (activity ≤50%) are considered inhibitory of NF-κB activity) |
